The source of these data is ChEMBL document CHEMBL1130163, “Synthesis and inhibition studies of sulfur-substituted squalene oxide analogues as mechanism-based inhibitors of 2,3-oxidosqualene-lanosterol cyclase” (J Med Chem, 1997).

In the assay the target is T1, Lanosterol synthase (Rattus norvegicus, UniProt P48450).
T1 sequence (P48450 whole entry): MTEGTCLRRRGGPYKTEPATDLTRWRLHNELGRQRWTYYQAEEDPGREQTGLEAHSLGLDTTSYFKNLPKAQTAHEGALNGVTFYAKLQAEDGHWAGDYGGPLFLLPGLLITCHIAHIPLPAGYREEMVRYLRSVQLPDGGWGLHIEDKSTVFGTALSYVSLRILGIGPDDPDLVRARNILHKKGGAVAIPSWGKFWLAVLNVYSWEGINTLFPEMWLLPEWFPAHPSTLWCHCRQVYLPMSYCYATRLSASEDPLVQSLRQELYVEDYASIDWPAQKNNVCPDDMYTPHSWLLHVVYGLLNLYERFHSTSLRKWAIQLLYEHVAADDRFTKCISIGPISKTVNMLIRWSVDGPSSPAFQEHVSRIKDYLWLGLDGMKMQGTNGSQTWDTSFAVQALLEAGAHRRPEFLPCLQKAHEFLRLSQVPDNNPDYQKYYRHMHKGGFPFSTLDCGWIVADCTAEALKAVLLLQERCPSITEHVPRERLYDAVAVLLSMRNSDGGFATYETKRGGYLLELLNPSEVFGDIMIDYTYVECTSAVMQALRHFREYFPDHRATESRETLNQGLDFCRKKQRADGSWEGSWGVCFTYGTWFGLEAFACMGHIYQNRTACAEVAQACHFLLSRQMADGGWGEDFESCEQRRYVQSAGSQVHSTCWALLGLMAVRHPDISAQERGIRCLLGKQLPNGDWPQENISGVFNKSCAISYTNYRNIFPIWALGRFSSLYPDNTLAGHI
Description: Inhibition against rat liver Oxidosqualene-lanosterol cyclase.

Usually IC50 stands for the concentration that gives 50% inhibition. High values mean weaker potency, low ones greater potency.

`CC(C)=CCCC1(C)OC1CC/C(C)=C/CC/C=C(\C)CCCC(C)CCC1OC1C` (stereo unspecified) returned an IC50 of 110 nM. In other words, the sub-micromolar range.
